The test system of experiment [1] is HCV genotype 1b (Con1) replicon in HUH-7 cells. Kind of experiment: HCV replicon luciferase reporter assay, genotype 1b. Format: cell-based. The note with it: Hepatitis C virus, Huh-7, 72 h, HCV genotype 1b replicon luciferase assay, 3 days incubation, range class, read-out: LE_1b (EC50, range). In short, it runs like this: (§1)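 Replicon inhibition for both genotypes was measured as Renilla luciferase signal (EnduRen, 7.5 μM final, 2 h) after 3-day, 37° C exposure of replicon-bearing HUH-7 cells in 4% FCS DMEM, 0.5% DMSO. The 1b construct carries S1179I; the 1a H77 construct carries P1496L and S2204I. Twenty-point, 3-fold dilutions were fitted four-parametrically for EC50, and CC50 was taken from multiplexed Cell Titer-Blue.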
(In general: A replicon is a self-replicating genome or part of one, used to study replication in cells.)

Experiment [2] deals with HCV genotype 1a (H77 strain) replicon in HUH-7 cells. Kind of experiment: HCV replicon luciferase reporter assay, genotype 1a. Format: cell-based. The note with it: Hepatitis C virus, Huh-7, 72 h, HCV genotype 1a replicon luciferase assay, 3 days incubation, range class, read-out: LE_1a (EC50, range). In short, it runs like this: as §1

For orientation: EC50 means the concentration at which the effect is half-maximal.

In the case of `COc1ccc2c(O[C@@H]3C[C@H]4C(=O)N[C@]5(C(=O)NS(=O)(=O)C6(C)CC6)C[C@H]5/C=C\CC[C@H](C)C[C@@H](C)[C@H](NC(=O)OC(C)(C)C(F)(F)F)C(=O)N4C3)nc(-c3ccc(OC(C)C)c(F)c3)cc2c1` [Compound 3077, 1,1,1-trifluoro-2-methylpropan-2-yl((2R,6S,7R,9S,13aS,14aR,16aS,Z)-2-((3-(3-fluoro-4-isopropoxyphenyl)-6-methoxyisoquinolin-1-yl)oxy)-7,9-dimethyl-14a-(((1-methylcyclopropyl)sulfonyl)carbamoyl)-5,16-dioxo-1,2,3,5,6,7,8,9,10,11,13a,14,14a,15,16,16a-hexadecahydrocyclopropa[e]pyrrolo[1,2-a][1,4]diazacyclopentadecin-6-yl)carbamate], the EC50 is under 5.46 nM in experiment [1] and 4.82 to 103 nM in experiment [2].

For the compound `COc1ccc2c(O[C@@H]3C[C@H]4C(=O)N[C@]5(C(=O)NS(=O)(=O)C6(C)CC6)C[C@H]5/C=C\CC[C@@H](C)C[C@@H](C)[C@H](NC(=O)OC(C)(C)C(F)(F)F)C(=O)N4C3)nc(-c3ccc(OC(C)C)c(F)c3)cc2c1` [Compound 3078, 1,1,1-trifluoro-2-methylpropan-2-yl((2R,6S,7R,9R,13aS,14aR,16aS,Z)-2-((3-(3-fluoro-4-isopropoxyphenyl)-6-methoxyisoquinolin-1-yl)oxy)-7,9-dimethyl-14a-(((1-methylcyclopropyl)sulfonyl)carbamoyl)-5,16-dioxo-1,2,3,5,6,7,8,9,10,11,13a,14,14a,15,16,16a-hexadecahydrocyclopropa[e]pyrrolo[1,2-a][1,4]diazacyclopentadecin-6-yl)carbamate], the EC50 in experiment [1] and in experiment [2] was under 5.46 nM throughout.

For the compound `COc1ccc2c(O[C@@H]3C[C@H]4C(=O)N[C@]5(C(=O)NS(=O)(=O)C6(C)CC6)C[C@H]5/C=C\CC[C@H](C)C[C@@H](C)[C@H](NC(=O)OC(C)(C)C(F)(F)F)C(=O)N4C3)nc(-c3ccc(F)cc3)cc2c1` [Compound 3079, 1,1,1-trifluoro-2-methylpropan-2-yl((2R,6S,7R,9S,13aS,14aR,16aS,Z)-2-((3-(4-fluorophenyl)-6-methoxyisoquinolin-1-yl)oxy)-7,9-dimethyl-14a-(((1-methylcyclopropyl)sulfonyl)carbamoyl)-5,16-dioxo-1,2,3,5,6,7,8,9,10,11,13a,14,14a,15,16,16a-hexadecahydrocyclopropa[e]pyrrolo[1,2-a][1,4]diazacyclopentadecin-6-yl)carbamate], the EC50 is under 5.46 nM in experiment [1] and 4.82 to 103 nM in experiment [2].

For the compound `COc1ccc2c(O[C@@H]3C[C@H]4C(=O)N[C@]5(C(=O)NS(=O)(=O)C6(C)CC6)C[C@H]5/C=C\CC[C@@H](C)C[C@@H](C)[C@H](NC(=O)OC(C)(C)C(F)(F)F)C(=O)N4C3)nc(-c3ccc(F)cc3)cc2c1` [Compound 3080, 1,1,1-trifluoro-2-methylpropan-2-yl((2R,6S,7R,9R,13aS,14aR,16aS,Z)-2-((3-(4-fluorophenyl)-6-methoxyisoquinolin-1-yl)oxy)-7,9-dimethyl-14a-(((1-methylcyclopropyl)sulfonyl)carbamoyl)-5,16-dioxo-1,2,3,5,6,7,8,9,10,11,13a,14,14a,15,16,16a-hexadecahydrocyclopropa[e]pyrrolo[1,2-a][1,4]diazacyclopentadecin-6-yl)carbamate], the EC50 in experiment [1] and in experiment [2] was under 5.46 nM in each case.

`COc1ccc2c(O[C@@H]3C[C@H]4C(=O)N[C@]5(C(=O)NS(=O)(=O)C6(C)CC6)C[C@H]5/C=C\CC[C@H](C)C[C@@H](C)[C@H](NC(=O)OC(C)(C)C)C(=O)N4C3)nc(-c3ccc(F)cc3)cc2c1` [Compound 3081, tert-butyl ((2R,6S,7R,9S,13aS,14aR,16aS,Z)-2-((3-(4-fluorophenyl)-6-methoxyisoquinolin-1-yl)oxy)-7,9-dimethyl-14a-(((1-methylcyclopropyl)sulfonyl)carbamoyl)-5,16-dioxo-1,2,3,5,6,7,8,9,10,11,13a,14,14a,15,16,16a-hexadecahydrocyclopropa[e]pyrrolo[1,2-a][1,4]diazacyclopentadecin-6-yl)carbamate]: the results for the EC50 in experiment [1] and in experiment [2] were under 5.46 nM and 4.82 to 103 nM, respectively.

Turning to `COc1ccc2c(O[C@@H]3C[C@H]4C(=O)N[C@]5(C(=O)NS(=O)(=O)C6(C)CC6)C[C@H]5/C=C\CC[C@@H](C)C[C@@H](C)[C@H](NC(=O)OC(C)(C)C)C(=O)N4C3)nc(-c3ccc(F)cc3)cc2c1` [Compound 3082, tert-butyl ((2R,6S,7R,9R,13aS,14aR,16aS,Z)-2-((3-(4-fluorophenyl)-6-methoxyisoquinolin-1-yl)oxy)-7,9-dimethyl-14a-(((1-methylcyclopropyl)sulfonyl)carbamoyl)-5,16-dioxo-1,2,3,5,6,7,8,9,10,11,13a,14,14a,15,16,16a-hexadecahydrocyclopropa[e]pyrrolo[1,2-a][1,4]diazacyclopentadecin-6-yl)carbamate], the 50% effective concentration (EC50) in experiment [1] and in experiment [2] was under 5.46 nM each time.

In the case of `COc1ccc2c(O[C@@H]3C[C@H]4C(=O)N[C@]5(C(=O)NS(=O)(=O)C6(C)CC6)C[C@H]5/C=C\CC[C@@H](C)C[C@@H](C)[C@H](NC(=O)O[C@H](C)C(F)(F)F)C(=O)N4C3)nc(-c3ccc(F)cc3)cc2c1` [Compound 3083, (R)-1,1,1-trifluoropropan-2-yl ((2R,6S,7R,9R,13aS,14aR,16aS,Z)-2-((3-(4-fluorophenyl)-6-methoxyisoquinolin-1-yl)oxy)-7,9-dimethyl-14a-(((1-methylcyclopropyl)sulfonyl)carbamoyl)-5,16-dioxo-1,2,3,5,6,7,8,9,10,11,13a,14,14a,15,16,16a-hexadecahydrocyclopropa[e]pyrrolo[1,2-a][1,4]diazacyclopentadecin-6-yl)carbamate], the EC50 in experiment [1] and in experiment [2] was under 5.46 nM throughout.

For the compound `COc1ccc2c(O[C@@H]3C[C@H]4C(=O)N[C@]5(C(=O)NS(=O)(=O)C6(C)CC6)C[C@H]5/C=C\CC[C@H](C)C[C@@H](C)[C@H](NC(=O)OCC5(C)CC5)C(=O)N4C3)nc(-c3ccc(F)cc3)cc2c1` [Compound 3084, (1-methylcyclopropyl)methyl ((2R,6S,7R,9S,13aS,14aR,16aS,Z)-2-((3-(4-fluorophenyl)-6-methoxyisoquinolin-1-yl)oxy)-7,9-dimethyl-14a-(((1-methylcyclopropyl)sulfonyl)carbamoyl)-5,16-dioxo-1,2,3,5,6,7,8,9,10,11,13a,14,14a,15,16,16a-hexadecahydrocyclopropa[e]pyrrolo[1,2-a][1,4]diazacyclopentadecin-6-yl)carbamate], the figures for the EC50 in experiment [1] and in experiment [2] were under 5.46 nM and 4.82 to 103 nM, respectively.

Regarding `COc1ccc2c(O[C@@H]3C[C@H]4C(=O)N[C@]5(C(=O)NS(=O)(=O)C6(C)CC6)C[C@H]5/C=C\CC[C@@H](C)C[C@@H](C)[C@H](NC(=O)OCC5(C)CC5)C(=O)N4C3)nc(-c3ccc(F)cc3)cc2c1` [Compound 3085, (1-methylcyclopropyl)methyl ((2R,6S,7R,9R,13aS,14aR,16aS,Z)-2-((3-(4-fluorophenyl)-6-methoxyisoquinolin-1-yl)oxy)-7,9-dimethyl-14a-(((1-methylcyclopropyl)sulfonyl)carbamoyl)-5,16-dioxo-1,2,3,5,6,7,8,9,10,11,13a,14,14a,15,16,16a-hexadecahydrocyclopropa[e]pyrrolo[1,2-a][1,4]diazacyclopentadecin-6-yl)carbamate], the EC50 in experiment [1] and in experiment [2] was under 5.46 nM throughout.

The record behind these values is US9499550B2 (BRISTOL-MYERS SQUIBB COMPANY, priority 2012, dated 2016).
